Target: human PAD4 (hPAD4) (Homo sapiens (Human), UniProt Q9UM07)
Assay: RFMS Human PAD4 Functional Assay
Assay type: biochemical
Settings: rapid-fire mass spectrum (RFMS) assay; 5 nM hPAD4 enzyme, 250 μM BAEE, 30 min preincubation at 37° C.

Chain of human PAD4 (hPAD4) (Q9UM07 whole entry): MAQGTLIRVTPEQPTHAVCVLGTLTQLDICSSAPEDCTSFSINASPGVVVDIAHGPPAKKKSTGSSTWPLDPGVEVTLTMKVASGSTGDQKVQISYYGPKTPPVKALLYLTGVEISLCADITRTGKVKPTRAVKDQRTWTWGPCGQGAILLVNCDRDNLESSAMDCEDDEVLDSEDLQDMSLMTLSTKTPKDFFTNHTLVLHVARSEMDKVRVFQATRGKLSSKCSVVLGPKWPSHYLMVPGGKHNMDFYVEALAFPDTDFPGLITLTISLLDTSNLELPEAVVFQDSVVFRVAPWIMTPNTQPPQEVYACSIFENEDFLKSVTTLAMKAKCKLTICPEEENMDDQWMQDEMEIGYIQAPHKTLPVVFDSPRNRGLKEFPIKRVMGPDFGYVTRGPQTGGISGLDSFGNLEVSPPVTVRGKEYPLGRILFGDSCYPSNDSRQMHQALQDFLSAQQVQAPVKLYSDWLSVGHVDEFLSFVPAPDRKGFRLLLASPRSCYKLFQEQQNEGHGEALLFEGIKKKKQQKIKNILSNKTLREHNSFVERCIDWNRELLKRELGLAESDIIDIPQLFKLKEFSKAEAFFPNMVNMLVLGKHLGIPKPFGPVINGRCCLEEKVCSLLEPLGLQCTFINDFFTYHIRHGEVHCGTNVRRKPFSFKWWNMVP

Compound	IC50
COc1cc(C(=O)N2C[C@H](N)C[C@@H](F)C2)cc2nc3n(c12)Cc1cnn(c1)CCCCCCCn1c-3cc2cccnc21 [Example 9, ((3R,5R)-3-amino-5-fluoropiperidin-1-yl)((Z)-2^7-methoxy-1^1H,2^1H,4^1H-1,2(2,1)-dipyrrolo[2,3-b]pyridina-4(4,1)-pyrazolacycloundecaphane-2^5-yl)methanone]	612 nM
COc1cc(C(=O)N2CC3CCC2[C@@H]3N)cc2nc3n(c12)Cc1cnn(c1)CCCCCCCn1c-3cc2cccnc21 (stereo partly drawn) [Example 10, ((7R)-7-amino-2-azabicyclo[2.2.1]heptan-2-yl)((Z)-2^7-methoxy-1^1H,2^1H,4^1H-1,2(2,1)-dipyrrolo[2,3-b]pyridina-4(4,1)-pyrazolacycloundecaphane-2^5-yl)methanone]	137 nM
((3R,5R)-3-amino-5- fluoropiperidin-1-yl)((Z)-2^7- methoxy-1^1H,2^1H,4^1H-2(2,1)- benzo[d]imidazola-1(2,1)-indola- 4(4,1)-pyrazolacyclodecaphane- 2^5-yl)methanone [Example 7]	136 nM
COc1cc(C(=O)N2C[C@H]3CC[C@@H]2[C@@H]3N)cc2nc3n(c12)Cc1cccc(c1)[C@@H]1CN(C)C[C@@H]1CCCCn1c-3cc2cccnc21 [Example 43, ((1R,4R,7R)-7-amino-2-azabicyclo[2.2.1]heptan-2-yl)((5^3R,5^4R)-2^7-methoxy-5′-methyl-1′H,2^1H-1,2(2,1)-dipyrrolo[2,3-b]pyridina-5(3,4)-pyrrolidina-4(1,3)-benzenacyclononaphane-2^5-yl)methanone]	153 nM
COc1cc(C(=O)N2CC3CCC2[C@@H]3N)cc2nc3n(c12)Cc1cccc(c1)-c1ccccc1CCCCn1c-3cc2ccccc21 (stereo partly drawn) [Example 22, ((1R,4R,7R)-7-amino-2-azabicyclo[2.2.1]heptan-2-yl)(2^7-methoxy-1^1H,2^1H-2(2,1)-benzo[d]imidazola-1(2,1)-indola-4(1,3),5(1,2)-dibenzenacyclononaphane-2^5-yl)methanone]	53 nM
COc1cc(C(=O)N2CC3CCC2[C@@H]3N)cc2nc3n(c12)Cc1cnn(c1)CCCCCCCn1c-3cc2ccccc21 (stereo partly drawn) [Example 6, ((7R)-7-amino-2-azabicyclo[2.2.1]heptan-2-yl)((Z)-2^7-methoxy-1^1H,2^1H,4^1H-2(2,1)-benzo[d]imidazola-1(2,1)-indola-4(4,1)-pyrazolacycloundecaphane-2^5-yl)methanone]	31 nM
COc1cc(C(=O)N2C[C@H](N)C[C@@H](F)C2)cc2nc3n(c12)Cc1cnn(c1)CCCCCCn1c-3cc2cccnc21 [Example 8, ((3R,5R)-3-amino-5-fluoropiperidin-1-yl)((Z)-2^7-methoxy-1^1H,2^1H,4^1H-1,2(2,1)-dipyrrolo[2,3-b]pyridina-4(4,1)-pyrazolacyclodecaphane-2^5-yl)methanone]	277 nM
((1R,4R,7R)-7-amino-2-azabicyclo[2.2.1]heptan-2-yl)((cis)-6,7-dihydroxy-2^7-methoxy-1^1H,2^1H-1,2(2,1)-dipyrrolo[2,3-b]pyridina-4(1,3),5(1,2)-dibenzenacyclononaphane-2^5-yl)methanone [Example 39]	26 nM
COc1cc(C(=O)N2CC3CCC2[C@@H]3N)cc2nc3n(c12)Cc1cnn(c1)-c1ccccc1OCCCn1c-3cc2cccnc21 (stereo partly drawn) [Example 16, ((7R)-7-amino-2-azabicyclo[2.2.1]heptan-2-yl)((Z)-2^7-methoxy-1^1H,2^1H,4^1H-6-oxa-1,2(2,1)-dipyrrolo[2,3-b]pyridina-4(4,1)-pyrazola-5(1,2)-benzenacyclononaphane-2^5-yl)methanone]	15 nM
COc1cc(C(=O)N2C[C@H](N)C[C@@H](F)C2)cc2nc3n(c12)Cc1cccc(c1)-c1ccccc1OCCCn1c-3cc2cccnc21 [Example 33, ((3R,5R)-3-amino-5-fluoropiperidin-1-yl)(2^7-methoxy-1^1H,2^1H-6-oxa-1,2(2,1)-dipyrrolo[2,3-b]pyridina-4(1,3),5(1,2)-dibenzenacyclononaphane-2^5-yl)methanone]	120 nM
COc1cc(C(=O)N2C[C@H](N)C[C@@H](F)C2)cc2nc3n(c12)Cc1cccc(c1)/C=C\CCCCn1c-3cc2cccnc21 [Example 51, ((3R,5R)-3-amino-5-fluoropiperidin-1-yl)((Z)-2^7-methoxy-1^1H,2^1H-1,2(2,1)-dipyrrolo[2,3-b]pyridina-4(1,3)-benzenacyclodecaphan-5-en-2^5-yl)methanone]	119 nM
COc1cc(C(=O)N2C[C@H](N)C[C@@H](F)C2)cc2nc3n(c12)Cc1cccc(c1)-c1ccccc1CCCCn1c-3cc2cccnc21 [Example 23, ((3R,5R)-3-amino-5-fluoropiperidin-1-yl)(2^7-methoxy-1^1H,2^1H,2(2,1)-dipyrrolo[2,3-b]pyridina-4(1,3),5(1,2)-dibenzenacyclononaphane-2^5-yl)methanone]	109 nM

These reach a lower IC50. Values come first.

IC50	Compound
11 nM	COc1cc(C(=O)N2CC3CCC2[C@@H]3N)cc2nc3n(c12)Cc1cnn(c1)-c1ccccc1OCCCn1c-3cc2ccccc21 (stereo partly drawn) [Example 14, ((7R)-7-amino-2-azabicyclo[2.2.1]heptan-2-yl)((Z)-2^7-methoxy-1^1H,2^1H,4^1H-6-oxa-2(2,1)-benzo[d]imidazola-1(2,1)-indola-4(4,1)-pyrazola-5(1,2)-benzenacyclononaphane-2^5-yl) methanone]
10 nM	COc1cc(C(=O)N2CC3CCC2[C@@H]3N)cc2nc3n(c12)Cc1cncc(c1)-c1ccccc1CCCCn1c-3cc2cccnc21 (stereo partly drawn) [Example 31, ((1R,4R,7R)-7-amino-2-azabicyclo[2.2.1]heptan-2-yl)(2^7-methoxy-1^1H,2^1H-1,2(2,1)-dipyrrolo[2,3-b]pyridina-4(3,5)-pyridina-5(1,2)-benzenacyclononaphane-2^5-yl)methanone]
9 nM	COc1cc(C(=O)N2C[C@H](N)C[C@@H](F)C2)cc2nc3n(c12)Cc1ccn(n1)-c1ccccc1OCCCn1c-3cc2cccnc21 [Example 18, ((3R,5R)-3-amino-5-fluoropiperidin-1-yl)((E)-2^7-methoxy-1^1H,2^1H,4^1H-6-oxa-1,2(2,1)-dipyrrolo[2,3-b]pyridina-4(3,1)-pyrazola-5(1,2)-benzenacyclononaphane-2^5-yl)methanone]
8 nM	COc1cc(C(=O)N2C[C@H](N)C[C@@H](F)C2)cc2nc3n(c12)Cc1cncc(c1)-c1ccccc1CCCCn1c-3cc2ccc(C(C)(C)O)nc21 [Example 52, ((3R,5R)-3-Amino-5-fluoropiperidin-1-yl)(1^6-(2-hydroxypropan-2-yl)-2^7-methoxy-1^1H,2^1H-1,2(2,1)-dipyrrolo[2,3-b]pyridina-4(3,5)-pyridina-5(1,2)-benzenacyclononaphane-2^5-yl)methanone]
5 nM	COc1cc(C(=O)N2CC3CCC2[C@@H]3N)cc2nc3n(c12)Cc1ccn(n1)-c1ccccc1OCCCn1c-3cc2ccccc21 (stereo partly drawn) [Example 19, ((7R)-7-amino-2-azabicyclo[2.2.1]heptan-2-yl)((E)-2^7-methoxy-1^1H,2^1H,4^1H-6-oxa-2(2,1)-benzo[d]imidazola-1(2,1)-indola-4(3,1)-pyrazola-5(1,2)-benzenacyclononaphane-2^5-yl)methanone]
4 nM	COc1cc(C(=O)N2C[C@H](N)C[C@@H](F)C2)cc2nc3n(c12)Cc1cncc(c1)-c1ccccc1CCCCn1c-3cc2cccnc21 [Example 30, ((3R,5R)-3-amino-5-fluoropiperidin-1-yl)(2^7-methoxy-1^1H, 2^1H-1,2(2,1)-dipyrrolo[2,3-b]pyridina-4(3,5)-pyridina-5(1,2)-benzenacyclononaphane-2^5-yl)methanone]

From patent US12492202B2, “Macrocyclic PAD4 inhibitors useful as immunosuppressant” (BRISTOL-MYERS SQUIBB COMPANY, priority 2020, dated 2025)
